Results: PubChem BioAssay (NCI)
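Abbreviation: GI50, concentration required for 50% inhibition of growth. TGI marks complete inhibition of growth.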

Tests used:
Experiment in all cases: inhibition of tumour cell growth, NCI panel, 384-well format
HOP-92 NSCLC = system: HOP-92 NSCLC
SK-OV-3 ovarian = system: SK-OV-3 ovarian
NCI-H322M lung = system: NCI-H322M lung
CCRF-CEM leukemia = system: CCRF-CEM leukemia
PC-3 prostate = system: PC-3 prostate
T-47D breast = system: T-47D breast
MDA-MB-231 breast = system: MDA-MB-231 breast
SW-620 colon = system: SW-620 colon
UACC-62 melanoma = system: UACC-62 melanoma
HL-60(TB) leukemia = system: HL-60(TB) leukemia
DU-145 prostate = system: DU-145 prostate
NCI-H226 lung = system: NCI-H226 lung
SF-268 CNS = system: SF-268 CNS
ACHN renal = system: ACHN renal
786-0 renal = system: 786-0 renal
MCF7 breast = system: MCF7 breast
HCT-116 colon = system: HCT-116 colon
OVCAR-4 ovarian = system: OVCAR-4 ovarian
SK-MEL-28 melanoma = system: SK-MEL-28 melanoma
SK-MEL-2 melanoma = system: SK-MEL-2 melanoma
MALME-3M melanoma = system: MALME-3M melanoma
HCT-15 colon = system: HCT-15 colon
IGROV1 ovarian = system: IGROV1 ovarian
OVCAR-3 ovarian = system: OVCAR-3 ovarian
SR leukemia = system: SR leukemia
HT29 colon = system: HT29 colon
RXF 393 renal = system: RXF 393 renal
LOX IMVI melanoma = system: LOX IMVI melanoma
BT-549 breast = system: BT-549 breast
TK-10 renal = system: TK-10 renal
NCI-H522 lung = system: NCI-H522 lung
OVCAR-5 ovarian = system: OVCAR-5 ovarian
CAKI-1 renal = system: CAKI-1 renal
SNB-75 CNS = system: SNB-75 CNS
MOLT-4 leukemia = system: MOLT-4 leukemia
UACC-257 melanoma = system: UACC-257 melanoma
SF-295 CNS = system: SF-295 CNS
NCI-H23 lung = system: NCI-H23 lung
NCI/ADR-RES ovarian = system: NCI/ADR-RES ovarian
RPMI-8226 leukemia = system: RPMI-8226 leukemia
MDA-MB-435 melanoma = system: MDA-MB-435 melanoma
SNB-19 CNS = system: SNB-19 CNS
SF-539 CNS = system: SF-539 CNS
U251 glioblastoma = system: U251 glioblastoma
SN12C renal = system: SN12C renal
EKVX NSCLC = system: EKVX NSCLC
KM12 colon = system: KM12 colon
HOP-62 NSCLC = system: HOP-62 NSCLC
A498 renal = system: A498 renal
A549 NSCLC = system: A549 NSCLC
NCI-H460 NSCLC = system: NCI-H460 NSCLC
HS 578T breast = system: HS 578T breast
SK-MEL-5 melanoma = system: SK-MEL-5 melanoma
UO-31 renal = system: UO-31 renal
MDA-MB-468 breast = system: MDA-MB-468 breast
COLO 205 colon = system: COLO 205 colon
M14 melanoma = system: M14 melanoma
K-562 leukemia = system: K-562 leukemia

Cn1cc(-c2ccc3nnc(Sc4ccc5ncccc5c4)n3n2)cn1
GI50 (HOP-92 NSCLC): > 100 µM | TGI (HOP-92 NSCLC): > 100 µM | GI50 (SK-OV-3 ovarian): > 100 µM | TGI (SK-OV-3 ovarian): > 100 µM | GI50 (NCI-H322M lung): > 100 µM | TGI (NCI-H322M lung): > 100 µM | GI50 (CCRF-CEM leukemia): > 100 µM | TGI (CCRF-CEM leukemia): > 100 µM | GI50 (PC-3 prostate): > 100 µM | TGI (PC-3 prostate): > 100 µM | GI50 (T-47D breast): > 100 µM | TGI (T-47D breast): > 100 µM | GI50 (MDA-MB-231 breast): > 100 µM | TGI (MDA-MB-231 breast): > 100 µM | GI50 (SW-620 colon): > 100 µM | TGI (SW-620 colon): > 100 µM | GI50 (UACC-62 melanoma): > 100 µM | TGI (UACC-62 melanoma): > 100 µM | GI50 (HL-60(TB) leukemia): > 100 µM | TGI (HL-60(TB) leukemia): > 100 µM | GI50 (DU-145 prostate): > 100 µM | TGI (DU-145 prostate): > 100 µM | GI50 (NCI-H226 lung): > 100 µM | TGI (NCI-H226 lung): > 100 µM | GI50 (SF-268 CNS): > 100 µM | TGI (SF-268 CNS): > 100 µM | GI50 (ACHN renal): > 100 µM | TGI (ACHN renal): > 100 µM | GI50 ([…]-0 renal): > 100 µM | TGI (786-0 renal): > 100 µM | GI50 (MCF7 breast): > 100 µM | TGI (MCF7 breast): > 100 µM | GI50 (HCT-116 colon): > 100 µM | TGI (HCT-116 colon): > 100 µM | GI50 (OVCAR-4 ovarian): > 100 µM | TGI (OVCAR-4 ovarian): > 100 µM | GI50 (SK-MEL-28 melanoma): > 100 µM | TGI (SK-MEL-28 melanoma): > 100 µM | GI50 (SK-MEL-2 melanoma): > 100 µM | TGI (SK-MEL-2 melanoma): > 100 µM | GI50 (MALME-3M melanoma): > 100 µM | TGI (MALME-3M melanoma): > 100 µM | GI50 (HCT-15 colon): > 100 µM | TGI (HCT-15 colon): > 100 µM | GI50 (IGROV1 ovarian): > 100 µM | TGI (IGROV1 ovarian): > 100 µM | GI50 (OVCAR-3 ovarian): > 100 µM | TGI (OVCAR-3 ovarian): > 100 µM | GI50 (SR leukemia): 27.2 µM | TGI (SR leukemia): > 100 µM | GI50 (HT29 colon): > 100 µM | TGI (HT29 colon): > 100 µM | GI50 (RXF 393 renal): 38.2 µM | TGI (RXF 393 renal): > 100 µM | GI50 (LOX IMVI melanoma): > 100 µM | TGI (LOX IMVI melanoma): > 100 µM | GI50 (BT-549 breast): > 100 µM | TGI (BT-549 breast): > 100 µM | GI50 (TK-10 renal): > 100 µM | TGI (TK-10 renal): > 100 µM | GI50 (NCI-H522 lung): > 100 µM | TGI (NCI-H522 lung): > 100 µM | GI50 (OVCAR-5 ovarian): > 100 µM | TGI (OVCAR-5 ovarian): > 100 µM | GI50 (CAKI-1 renal): > 100 µM | TGI (CAKI-1 renal): > 100 µM | GI50 (SNB-75 CNS): > 100 µM | TGI (SNB-75 CNS): > 100 µM | GI50 (MOLT-4 leukemia): > 100 µM | TGI (MOLT-4 leukemia): > 100 µM | GI50 (UACC-257 melanoma): > 100 µM | TGI (UACC-257 melanoma): > 100 µM | GI50 (SF-295 CNS): 46.3 µM | TGI (SF-295 CNS): > 100 µM | GI50 (NCI-H23 lung): > 100 µM | TGI (NCI-H23 lung): > 100 µM | GI50 (NCI/ADR-RES ovarian): > 100 µM | TGI (NCI/ADR-RES ovarian): > 100 µM | GI50 (RPMI-8226 leukemia): > 100 µM | TGI (RPMI-8226 leukemia): > 100 µM | GI50 (MDA-MB-435 melanoma): > 100 µM | TGI (MDA-MB-435 melanoma): > 100 µM | GI50 (SNB-19 CNS): > 100 µM | TGI (SNB-19 CNS): > 100 µM | GI50 (SF-539 CNS): > 100 µM | TGI (SF-539 CNS): > 100 µM | GI50 (U251 glioblastoma): > 100 µM | TGI (U251 glioblastoma): > 100 µM | GI50 (SN12C renal): > 100 µM | TGI (SN12C renal): > 100 µM | GI50 (EKVX NSCLC): > 100 µM | TGI (EKVX NSCLC): > 100 µM | GI50 (KM12 colon): > 100 µM | TGI (KM12 colon): > 100 µM | GI50 (HOP-62 NSCLC): > 100 µM | TGI (HOP-62 NSCLC): > 100 µM | GI50 (A498 renal): > 100 µM | TGI (A498 renal): > 100 µM | GI50 (A549 NSCLC): > 100 µM | TGI (A549 NSCLC): > 100 µM | GI50 (NCI-H460 NSCLC): > 100 µM | TGI (NCI-H460 NSCLC): > 100 µM | GI50 (HS 578T breast): 61.6 µM | TGI (HS 578T breast): > 100 µM | GI50 (SK-MEL-5 melanoma): > 100 µM | TGI (SK-MEL-5 melanoma): > 100 µM | GI50 (UO-31 renal): > 100 µM | TGI (UO-31 renal): > 100 µM | GI50 (MDA-MB-468 breast): 13.8 µM | TGI (MDA-MB-468 breast): 48.4 µM | GI50 (COLO 205 colon): > 100 µM | TGI (COLO 205 colon): > 100 µM | GI50 (M14 melanoma): > 100 µM | TGI (M14 melanoma): > 100 µM | GI50 (K-562 leukemia): > 100 µM | TGI (K-562 leukemia): > 100 µM
